This note sets out measurements from article PMC5625810, “Chiglitazar Preferentially Regulates Gene Expression via Configuration-Restricted Binding and Phosphorylation Inhibition of PPARγ” (PPAR Research, 2017).

For the experiment, the target named is T1, PPARγ (Homo sapiens, UniProt P37231).
T1 construct: gene PPARG
T1 sequence (P37231 231-505 limits assumed): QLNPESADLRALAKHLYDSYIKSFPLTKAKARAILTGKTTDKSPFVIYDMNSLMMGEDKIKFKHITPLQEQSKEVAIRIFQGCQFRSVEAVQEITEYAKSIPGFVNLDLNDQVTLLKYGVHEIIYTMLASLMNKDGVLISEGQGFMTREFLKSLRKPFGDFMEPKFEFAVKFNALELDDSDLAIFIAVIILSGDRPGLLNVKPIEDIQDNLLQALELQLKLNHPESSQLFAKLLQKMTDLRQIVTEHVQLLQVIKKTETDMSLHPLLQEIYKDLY
Description: AlphaScreen cofactor peptide recruitment on purified LBD ([…]); cell reporter AC50 […] separately. In kind it is biochemical.

Each structure is given as a SMILES string.

In the case of `CN(CCOc1ccc(CC2SC(=O)NC2=O)cc1)c1ccccn1` (stereo not shown) [Ros, rosiglitazone], the “AlphaScreen cofactor peptide recruitment on purified LBD (2 μM); cell reporter A” value is “The inhibition was partially and differentially restored upon additions of the three ligands”.
